Assay results reported in article PMC9917023, “Stabilization of Monomeric Tau Protein by All D-Enantiomeric Peptide Ligands as Therapeutic Strategy for Alzheimer’s Disease and Other Tauopathies” (International Journal of Molecular Sciences, 2023).

Test system: brain endothelial cells (RBMVEC) and astroglial cells (CTX TNA2)
Procedure: Each peptide was tested at different time points in triplicate next to an unseeded negative control (“Empty”) and quantitatively analyzed via HPLC using a calibration curve to determine the concentration of the peptide in the receiving chamber at each point in time (Figure 11). From these values, the volume of each chamber, and the respective time, a Papp permeability coefficient in cm²/s was calculated for each substance to represent its ability to cross the in vitro blood–brain barrier model.
An amount equaling 1 mg/mL TF2D-5 (A) or TF2D-5a (B) was added to an insert that was seeded and covered with endothelial and astroglial cells, representing the in vitro blood–brain barrier, or an empty insert serving as a control. After different time points, samples were taken and analyzed by quantitative HPLC analysis. Data given as mean ± SD out of three independent replicates.
Brain endothelial cells from rats and astroglial cells were used to cultivate the different sides of the porous membrane.
Brain endothelial cells from rats (RBMVEC, Cell Applications Inc., R840-05a, San Diego, CA, USA) were cultivated in Complete Classic medium (Cell Systems, Kirkland, WA, USA, 4Z0-500), and rat astroglial cells (CTX TNA2, ATCC, CRL-2006) were cultivated in Complete Classic medium (Cell Systems, Kirkland, WA, USA, 4Z0-500). The cells were allowed to grow in a humidified incubator with 5% CO2 at 37 °C and a maximum of 20 passages. The cells were passaged every 3 to 5 days, according to their confluence.
In order to set up the in vitro BBB model, the astroglial cells were seeded at a density of 600.000 cells/cm² on the outer (basolateral, “brain”) side of an insert with a porous membrane (Corning Transwell polycarbonate membrane cell culture inserts, CLS3415, 3 µM pore size) and allowed to grow/adhere overnight in the Complete Classic medium. The next day, brain endothelial cells were seeded at a density of 600.000 cells/cm² on the inner side (apical, “blood”) of the corresponding membrane. The seeded inserts were then cultivated to grow to full confluence over a period of 5 to 7 days, with the medium renewed daily. […] Prior to this, TEER (transendothelial electrical resistance values) were measured in each well to ensure the integrity of the in vitro BBB. At 0, 30, 60, 90, 120, 150, 180, and 240 min, 50 µL of the medium out of the outer chamber was taken and analyzed by HPLC. This 50 µL would then be replaced by the same amount of fresh serum-free medium to keep the fluid levels equal across both chambers. This slight dilution was factored into the following calculations. Furthermore, a dilution series of each reagent was analyzed alongside the samples as a calibration to quantify the analysis. […] The Papp values were calculated as follows (higher is better): Papp =(V/A∗C)∗(Dc/Dt)

| SMILES | Papp permeability coefficient [×10⁻⁶ cm/s] |
| --- | --- |
| O=C1OC2(c3ccc(O)cc3Oc3cc(O)ccc32)c2ccccc21 [Fluorescein, reference compound] | 0.886 |
| Cn1c(=O)c2c(ncn2C)n(C)c1=O [Caffeine, reference compound] | 31.8 |
